# Measurements as given in paper PMC6006164, “Natural cyclopeptide RA-V inhibits the NF-κB signaling pathway by targeting TAK1” (Cell Death & Disease, 2018).
# Tests used:
# Assay type in all cases: cell-based
# [1] = system: p65 phosphorylation, IκBα phosphorylation and IκBα degradation; assay: Western blot of TNF-α-induced NF-κB-associated proteins; conditions: HEK293T or HeLa; RA-V 24 h, 10 ng/mL TNF-α 10 min
# Procedure: (§1) Fig. 1 RA-V inhibits TNF-α- and LPS-induced activation of NF-κB. a Chemical structure of RA-V. b RA-V inhibited the NF-κB signaling pathway in a dose-dependent manner. HEK293T or HeLa cells were transfected with the 5 × κB-luciferase and pTK-Renilla reporters. Twenty-four hours after transfection, the cells were incubated with various concentrations of RA-V for 6 h, and then treated with 10 ng/mL TNF-α for 2 h before the luciferase activity assay and MTT assay. c RA-V reduced TNF-α-induced expression of NF-κB target genes. HEK293T or HeLa cells were treated with various concentrations of RA-V for 24 h and stimulated with 10 ng/mL TNF-α for 2 h. The expression of the NF-κB target genes, IL-8, MCP-1, and E-selectin was measured by quantitative RT-PCR and normalized to GADPH expression. d RA-V inhibited TNF-α-induced p65 phosphorylation, IκBα phosphorylation and IκBα degradation. HEK293T or HeLa cells were incubated with various concentrations of RA-V for 24 h and treated with 10 ng/mL TNF-α for 10 min. The cell lysates were prepared and subjected to western blot analysis with the indicated antibodies. e RA-V inhibited TNF-α-induced IL-8 production. […] The expression of IL-6 was measured. h RA-V inhibited LPS-induced p65 phosphorylation, IκBα phosphorylation. […] The protein expression was measured. i RA-V inhibited LPS-induced IL-6 production. […] The expression of IL-6 was measured. […]
# NF-κB signaling pathway = assay: NF-κB-dependent luciferase reporter (5×κB-luciferase/pTK-Renilla), TNF-α-induced, HeLa cells; conditions: RA-V 6 h, then 10 ng/mL TNF-α 2 h, three independent experiments
# Procedure: as §1
# RAW264.7 cells = assay: LPS-induced NF-κB activation in RAW264.7 cells; conditions: 1 μg/mL LPS 3 h, dose-dependent
# Procedure: Fig. 1 RA-V inhibits TNF-α- and LPS-induced activation of NF-κB. a Chemical structure of RA-V. b RA-V inhibited the NF-κB signaling pathway in a dose-dependent manner. HEK293T or HeLa cells were transfected with the 5 × κB-luciferase and pTK-Renilla reporters. Twenty-four hours after transfection, the cells were incubated with various concentrations of RA-V for 6 h, and then treated with 10 ng/mL TNF-α for 2 h before the luciferase activity assay and MTT assay. c RA-V reduced TNF-α-induced expression of NF-κB target genes. HEK293T or HeLa cells were treated with various concentrations of RA-V for 24 h and stimulated with 10 ng/mL TNF-α for 2 h. The expression of the NF-κB target genes, IL-8, MCP-1, and E-selectin was measured by quantitative RT-PCR and normalized to GADPH expression. d RA-V inhibited TNF-α-induced p65 phosphorylation, IκBα phosphorylation and IκBα degradation. HEK293T or HeLa cells were incubated with various concentrations of RA-V for 24 h and treated with 10 ng/mL TNF-α for 10 min. The cell lysates were prepared and subjected to western blot analysis with the indicated antibodies. e RA-V inhibited TNF-α-induced IL-8 production. […] The expression of IL-6 was measured. h RA-V inhibited LPS-induced p65 phosphorylation, IκBα phosphorylation. […] The protein expression was measured. i RA-V inhibited LPS-induced IL-6 production. […] The expression of IL-6 was measured.
# TAK1–TRAF6 interaction = molecular target: T1, TAK1–TRAF6 interaction (Homo sapiens, UniProt O43318); assay: Co-immunoprecipitation of TAK1 and TRAF6; conditions: HEK293T, Flag-TAK1 and HA-TRAF6; RA-V 800 nM 6 h
# T1 construct: expressed in transfected cells; host or cells: HEK293T
# T1 sequence (O43318 1-579 isoform O43318-2): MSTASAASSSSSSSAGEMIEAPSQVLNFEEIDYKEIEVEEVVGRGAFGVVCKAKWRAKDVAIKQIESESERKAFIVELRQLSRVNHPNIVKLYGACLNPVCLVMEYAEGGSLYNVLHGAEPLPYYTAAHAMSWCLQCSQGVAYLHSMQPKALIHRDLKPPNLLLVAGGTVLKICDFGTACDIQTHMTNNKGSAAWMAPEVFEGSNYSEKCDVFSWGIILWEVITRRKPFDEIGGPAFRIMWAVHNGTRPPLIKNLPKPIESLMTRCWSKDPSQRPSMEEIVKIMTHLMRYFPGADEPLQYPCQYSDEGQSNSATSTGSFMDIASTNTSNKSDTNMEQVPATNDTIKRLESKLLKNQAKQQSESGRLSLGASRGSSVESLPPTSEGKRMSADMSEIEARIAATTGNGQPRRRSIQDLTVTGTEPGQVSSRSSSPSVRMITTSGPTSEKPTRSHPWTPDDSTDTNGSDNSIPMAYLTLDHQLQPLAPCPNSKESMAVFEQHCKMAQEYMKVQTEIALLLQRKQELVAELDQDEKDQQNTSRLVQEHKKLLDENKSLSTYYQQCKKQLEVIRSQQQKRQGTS
# Procedure: Fig. 4 RA-V blocks the interaction between TAK1 and TAB2. a RA-V blocked the exogenous TAK1–TAB2 interaction. HEK293T cells were transfected with Flag-TAK1 and HA-TAB2 for 24 h and then incubated with various concentrations of RA-V for 6 h. […] HEK293T cells were transfected with Flag-TAK1 and HA-TRAF6 or HA-TAB1 for 24 h and then incubated with RA-V (800 nM) for 6 h. The cell lysates were immunoprecipitated with HA antibody, and immunoblots were performed with the indicated antibodies. d RA-V blocked the endogenous TAK1–TAB2 interaction. HEK293T (left) or RAW264.7 (right) cells were incubated with 800 nM RA-V for 6 h and stimulated with 10 ng/mL TNF-α for 2 h or 1 μg/mL LPS for 3 h, respectively. The cell lysates were immunoprecipitated with TAK1 antibody or control IgG and then immunoblotted with the indicated antibodies. Each experiment was repeated at least three times
# The cell lysates were prepared using radioimmunoprecipitation (RIPA) buffer containing 50 mM Tris-HCl pH 7.4, 150 mM NaCl, 1 mM ethylenediaminetetraacetic acid, 1% Triton X-100, 0.5% deoxycholate, and 0.1% sodium dodecyl sulfate, to which protease inhibitors (Roche) were added. The lysates were incubated with the indicated antibodies before adding 20 μL of Protein A/G agarose for 2 h. After four washes with the same buffer, the immunoprecipitates were boiled in 2 × SDS loading buffer.
substance,measurement,setting,value
RA-V,"TNF-α-induced IκBα phosphorylation, IκBα degradation, and p65 phosphorylation",[1],dose-dependent inhibitory effects
same,IC50,NF-κB signaling pathway,171 nM
same,"LPS-induced IL-6 production, IκBα phosphorylation and p65 phosphorylation",RAW264.7 cells,inhibited
same,TAK1–TRAF6 interaction,TAK1–TRAF6 interaction,does not disrupt
